Test results published in patent US20230088704A1, “A PHARMACEUTICAL COMBINATION FOR THE TREATMENT OF A CANCER” (ABILITY PHARMACEUTICALS S.L., priority 2020, published 2023).
Where two headings read alike, the source gives them in different places.

Tests used:
[1] = system: PMA-activated THP-1 macrophages; experiment: Conditioned media of ABTL0812-treated MiaPaca2 cells on THP-1 macrophages; format: cell-based, human; conditions: conditioned media from MiaPaca2 cells treated with ABTL0812 40 μM 72 hours
Experimental: Methods: MiaPaca2 cells were incubated with 40 μM of ABTL0812 during 72 hours and conditioned media (RPMI) of these ABTL0812-treated cells were collected. In parallel, human THP-1 cells were differentiated to macrophages by incubation with PMA (Phorbol myristate acetate) for 24 hours, inducing their attachment to the plates. Then, conditioned media from ABTL0812-treated MiaPaca2 cells was transferred to PMA-activated THP-1 macrophages and incubated during 24 hours for RT-qPCR analysis of M1 phenotype markers IL-1β and TNF-α, or during 48 hours for cell viability studies using the MTT assay. For M1 marker analysis, cells were collected, RNA extracted, retrotranscribed to cDNA and mRNA levels of IL-1β and TNF-α assessed by RT-qPCR.

LLC1 cells = experiment: Syngeneic lung cancer model, subcutaneous LLC1, tumor volume; format: in vivo, C57BL6 mice; conditions: ABTL0812 oral 120 mg/kg/day; anti-PD1 i.p. 100 μg/dose every three days; carboplatin and paclitaxel i.p. once a week
Experimental: C57BL6 mice were injected with 0.25×10^6 LLC1 cells in one flank to induce tumor formation. […] Tumor volume and body weight were monitored 3 times a week.

Ishikawa cells [2] = experiment: Human endometrial cancer xenograft, ABTL0812 with olaparib; format: in vivo; conditions: ABTL0812 oral 120 mg/kg/day; Olaparib oral 50 mg/kg/day
Experimental: Methods: Mice were injected with 4×10^6 Ishikawa cells in one flank to induce tumor formation. […] Olaparib was administered by the oral route 50 mg/kg/day. Tumor volume and body weight were monitored 3 times a week.

[3] = system: THP-1 human macrophage cells; experiment: M1/M2 macrophage polarization, marker mRNA by RT-qPCR; format: cell-based
Experimental: Methods: THP-1 monocytes growing in suspension are differentiated to macrophages by incubation with PMA for 24 hours, inducing their attachment to the plates. Once THP-1 are differentiated to macrophages, these are polarized to M1 by incubation with LPS for 6 or 24 hours in the presence of ABTL0812 (50 or 100 μM). In parallel, differentiated macrophages are polarized to M2 by incubation with IL-4 and IL-13 for 24 hours in the presence of ABTL0812 (50 μM). Then, polarized macrophages are lysed, total RNA extracted, retrotranscribed to cDNA and mRNA levels of IL1β, TNFα (M1 markers) and […] (M2 marker) were evaluated by RT-qPCR using specific probes.

U87MG cells = experiment: Human glioblastoma orthotopic xenograft, ABTL0812 with radiotherapy; format: in vivo, nude mice
Experimental: Methods: Mice were intra-cerebrally injected with luciferase transfected U87MG cells. Animals were randomized 5 days after cell inoculation and treatments started. ABTL0812 was administered orally at 240 mg/kg 5 days/week and radiotherapy as single dose of 4 Gy administered at day 10.
Tumors were measured by quantification of bioluminescence intensity (BLI) of the region of interest.

[4] = system: Human pancreatic cancer cells; experiment: Secretome of pancreatic cancer cells, chemokine antibody array; format: cell-based; conditions: ABTL0812 100 μM; 24 hours
Experimental: Methods: Human pancreatic cancer cells were treated with ABTL0812 at 100 μM for 24 hours and culture media was collected for its incubation using the RayBio C-Series Human Chemokine Antibody Array C1 (RayBiotec). Culture media was incubated with a membrane containing antibodies against 38 different chemokines. Afterwards, the membrane was incubated with secondary antibodies and further developed using HRP substrate.

Ishikawa cells [5] = format: in vivo; conditions: ABTL0812 oral 120 mg/kg/day; Doxorubicin 5 mg/kg i.p. once a week
Experimental: Methods: Mice were injected with 4×10^6 Ishikawa cells in one flank to induce tumor formation. […] ABTL0812 was administered by the oral route at 120 mg/kg/day. Doxorubicin 5 mg/kg was administered intra-peritoneally once a week. Tumor volume and body weight were monitored 3 times a week.

[6] = system: human immortalized THP-1 and human primary macrophage cells; experiment: M1/M2 polarization of immortalized and primary macrophages, RT-qPCR; format: cell-based
Experimental: Methods: THP-1 monocytes growing in suspension were differentiated to macrophages by incubation with PMA for 24 hours, inducing their attachment to the plates. Monocytes were differentiated to macrophages incubating with M-CSF1 at 20 ng/mL for 7 days. In parallel, whole blood was collected from healthy donors, and circulating monocytes were purified using immunomagnetic separation. Monocytes were selected using anti-CD14 antibodies bound to magnetic beads, which were retained in the magnetic column and further eluted for culturing in vitro. After obtaining activated macrophages (immortalized and primary), these were polarized to M1 by incubation with LPS+IFNγ for 6 hours in the presence of ABTL0812 at 100 μM. In parallel, differentiated macrophages were polarized to M2 by incubation with IL-4 and IL-13 for 24 hours in the presence of ABTL0812 (100 μM). Afterwards, polarized macrophages were lysed, total RNA extracted, retrotranscribed to cDNA and mRNA levels of IL1β, TNFα (M1 markers) and IL-10 (M2 marker) were evaluated by RT-qPCR using specific probes.

[7] = system: Ishikawa endometrial cancer cells; experiment: Co-culture of ABTL0812-treated cancer cells with activated T cells, MTT; format: cell-based, human; conditions: ABTL0812 50 μM 6 hours, then co-culture with activated T lymphocytes 24 hours
Experimental: Methods: human PBMCs were purified from peripheral blood of healthy donors using Ficoll and cultured in vitro. Human T cells were activated by incubation with IL-2 and CD3 and CD28 antibodies for 10 days. In parallel, Ishikawa endometrial cancer cells were treated with ABTL0812 at 50 μM for 6 hours and then co-cultured with activated T lymphocytes for 24 hours. Then, cell viability was assessed by the MTT assay. Untreated Ishikawa cells were used as controls.

[8] = differentiated macrophages without polarizing, ABTL0812 alone
[9] = macrophages polarized to M1 (LPS 6 or 24 hours), ABTL0812 50 or 100 μM
[10] = macrophages polarized to M1 (LPS+IFNγ 6 hours), ABTL0812 100 μM

CCCCC/C=C\C/C=C\CCCCCCC(O)C(=O)O (stereo not drawn) [ABTL0812, COOH—CHOH—(CH2)6—(CH═CH—CH2)2—(CH2)3—CH3]
gene expression of IL-1β ([1]; 24 hours on macrophages): significantly increasing the gene expression
gene expression of TNF-α ([1]; 24 hours on macrophages): significantly increasing the gene expression
THP-1 cell viability (MTT) ([1]; 48 hours on macrophages): significantly increasing THP-1 cell viability
tumor volume (LLC1 cells): significantly reduced tumor volume
tumor volume (Ishikawa cells [2]): significantly reduced tumor volume
expression of IL-1β [3, 8]: significantly induce the expression of IL-1β
IL-1β mRNA levels [3, 9]: significantly potentiates
TNFα mRNA levels [3, 9]: significantly potentiates
IL-10 mRNA levels ([3]; macrophages polarized to M2 (IL-4 and IL-13, 24 hours), ABTL0812 50 μM): significantly suppresses
disease-free survival, single agent (U87MG cells; ABTL0812 oral 240 mg/kg 5 days/week): significantly increased the disease-free survival
disease-free survival, combination with radiotherapy (U87MG cells; ABTL0812 oral 240 mg/kg 5 days/week + radiotherapy single dose 4 Gy at day 10): significantly more efficacious than the single treatments
secreted CCL5 [4]: decrease
secreted CXCL6 [4]: decrease
secreted CXCL16 [4]: decrease
secreted angiogenin [4]: decrease
tumor volume (Ishikawa cells [5]): significantly reduced tumor volume
expression of IL-1β [6, 8]: significantly induces the expression of IL-1β
IL-1β mRNA levels [6, 10]: significantly potentiates
TNFα mRNA levels [6, 10]: significantly potentiates
IL-10 mRNA levels ([6]; macrophages polarized to M2 (IL-4 and IL-13, 24 hours), ABTL0812 100 μM): significantly suppresses
cytotoxic effect of activated T cells on cancer cells [7]: potentiates the cytotoxic effect of activated T cells
